Assay results: patent publication US20010025105A1, “Certain substituted 1-aryl-3-piperazine-1'-yl propanones” (Molecular Geriatarics Corporation, priority 1997, published 2001)
Counter-ions that a name gives are not always drawn.

What was measured:
[1] = tested on: microtubule cytoskeleton of human CG neuroblastoma cells; experiment: Antimicrotubule activity, tubulin immunofluorescence microscopy; format: cell-based; conditions: 2 hr at 37° C., read-out: Concentration where microtubule destabilization occurs
Description: The compounds of the invention according to formula I are effective in destabilizing microtubules, thus are useful in treating certain neoplastic diseases. Indirect immunofluorescence microscopy using the monoclonal antibodies to tubulin is used herein to determine the activity of the compounds of this invention in promoting depolymerization of the microtubule cytoskeleton in cultured cells. The following assay was employed.
Cultured human CG neuroblastoma cells were seeded 1:3 from confluent cultures onto sterile 11×22 mm coverslips in 6 well tissue culture plates 16 hr prior to treatment. The following day, the tissue culture medium is removed and the cells are exposed to various concentrations of compounds of this invention in Krebs Ringer Hepes (KRH) buffer containing a final concentration of 0.5% DMSO as carrier. Incubations were performed at 37° C. in a humidified 5% CO2 atmosphere for 2 hr. After incubation, the cells were fixed in 3% TEM grade formaldehyde in PBS for 45 min at room temperature.
To visualize the effects of the compounds of the invention on the microtubule cytoskeleton, the cells were processed for tubulin immunofluorescence. Briefly, the cells were permeabilized in 0.5% Triton-X 100 in PBS for 5 min. The cells were washed 2× with PBS and aldehydes reduced using 0.5 mg/ml NaBH4 in PBS for 5 min. Subsequently, the cells were blocked for 10 min in 1.5% BSA and 1.5% nonfat dry milk in PBS (blocking solution, BS) for 10 min. The cells were then incubated for 30 min at 37° C. with the monoclonal antibody Tu27B which recognizes b-tubulin (dilution 1:20 in BS). Subsequently, the cells were washed 2× in PBS and once in BS. The cells were then incubated for 30 min at 37° C. with sheep antimouse IgG conjugated to FITC. After incubation, the cells were washed 2× in PBS and once in BS and incubated for 30 min at 37° C. with rabbit antisheep IgG conjugated to FITC. The cells were rinsed in PBS, counterstained with Hoechst 33285 in PBS (1 μg/ml), and rinsed in PBS. The coverslips were mounted in 9:1 glycerol:PBS containing 1 mg/ml p-phenylenediamine and sealed with nail polish.
The cells were viewed using a Jenalumar epifluorescence microscope equipped with the proper filters for Fluorescein Isothiocyanate (FITC) excitation and emission. Lack of effect of a compound is evidenced by the presence of an intact microtubule network in interphase cells, or a mitotic spindle in dividing cells. Antineoplastic compounds of the invention at effective doses result in the disappearance of microtubules in both interphase and mitotic cells.

[2] = tested on: Candida albicans SRI 523; experiment: Agar disc diffusion assay; format: cell-based; conditions: 240 ug/disc, about 24 hr at 37° C.; for zone of inhibition at 240 µg/disc: Candida albicans, SRI523, read-out: Diameter of the zone of inhibition, C. albicans
Description: (§1) The activity of the compounds is determined using the following assay. The compound is dissolved in DMSO at a concentration of 6 mg/ml and then diluted with water to a final concentration of 3 mg/ml in 50% DMSO (% DMSO was shown not to be inhibitory to the test organisms). An aliquot (0.08 ml) of each drug solution was transferred to filter paper discs (12.7 mm diameter, Scmeicherand Schuell) for use in the agar diffusion assay. The concentration of each drug on the filter paper disc was 240 ug/disc. The test organisms included the following: Gram-positive aerobes (Staphylococcus aureus SRI 1323, Streptococcus pneumoniae SRI 1167); Gram-negative aerobe (Proteus vulgaris SRI 180); and the yeast Candida albicans SRI 523. An agar disc diffusion assay was used to evaluate the antimicrobial activity of the test compounds. Briefly, cultures were prepared from 16-20 hr agar slant cultures by inoculating in physiological saline to a turbidity equivalent to a #0.5 McFarland turbidity standard for the bacteria and a #3 McFarland standard for C. albicans. The surface of Mueller-Hinton agar (15×100 mm plates, mm) were evenly inoculated with each standardized culture using a cotton swab. Filter paper discs containing the drug concentration listed above were then placed on the inoculated agar plates along with a disc containing the solvent used to dissolve each drug. The plates were incubated at 37° C. for about 24 hr and the diameters of the zones of inhibition measured with a vernier caliper. Positive control drugs consisted of streptomycin for use with the bacterial strains and 5-fluorocytosine for use with C. albicans. The positive control drugs were assayed as described above for the compounds of the present invention using the same concentration.

[3] = tested on: Proteus vulgaris SRI 180; experiment: Agar disc diffusion assay; format: cell-based; conditions: 240 ug/disc, about 24 hr at 37° C., 0 = no measurable zone; for zone of inhibition at 240 µg/disc: Proteus vulgaris, SRI180, read-out: Diameter of the zone of inhibition, P. vulgaris
Description: as §1

[4] = tested on: Staphylococcus aureus SRI 1323; experiment: Agar disc diffusion assay; format: cell-based; conditions: 240 ug/disc, about 24 hr at 37° C.; for zone of inhibition at 240 µg/disc: Staphylococcus aureus, SRI1323, read-out: Diameter of the zone of inhibition, S. aureus
Description: as §1

[5] = tested on: Streptococcus pneumoniae SRI 1167; experiment: Agar disc diffusion assay; format: cell-based; conditions: 240 ug/disc, about 24 hr at 37° C., + = zone too large to measure; for zone of inhibition at 240 µg/disc: Streptococcus pneumoniae, SRI1167, read-out: Diameter of the zone of inhibition, S. pneumoniae
Description: as §1

[6] = tested on: TG3 immunoreactivity in OKA treated MSN1a cells; experiment: MSN1a cell culture model, ELISA with TG3 antibody, okadaic acid treated cells; format: cell-based, human; conditions: Homo sapiens, 1 μM OKA, 2 hrs at 37° C., read-out: IC50 for inhibition of TG3 immunoreactivity in OKA treated MSN1a cells
Description: This assay can thus be used to determine whether a drug is capable of preventing or intervening in AD by attenuating the production of abnormally phosphorylated paired helical filament epitopes associated with AD. To determine whether a drug is capable of preventing or intervening in AD activity, the MSN1a cells containing tau and associated proteins are treated with OKA capable of greatly increasing immunoreactivity of the MSN1a cells with AD specific monoclonal antibodies. Then, either prior to or concomitantly with OKA treatment, a compound of the present invention is added to the culture. If the compound prevents the induction of the AD epitopes in the MSN1a cells treated with OKA, then it is said to have anti-AD activity. If the AD-specific antibodies are highly reactive with the neuroblastoma cells following OKA treatment in the presence of compound, then the compound is said to be ineffectual against AD.
The MSN1a human neuroblastoma line was subcloned from a population of MSN cells obtained from the laboratory of Dr. Peter Davies (Albert Einstein College of Medicine, New York, N.Y.). Cells were grown and maintained in flasks in RPMI 1640 medium, supplemented with 15% fetal calf serum, 100 U/ml penicillin, 100 U/ml Streptomycin, 0.5 ug/ml fungizone under 7.5% CO2 at 37° C.
Stock solutions of drugs were prepared by dissolving the anhydrous powders to final concentrations of either 10 or 20 mM in 50% aqueous or 100% dimethyl sulfoxide (DMSO), respectively. Working solutions of drugs were prepared by dilution of the stock solutions with Kreb's Ringer in Hepes buffer (KRH) (128 mM NaCl, 5 mM KCl, 2.5 mM CaCl2 1.2 mM MgSO4, 1 mM Na2HPO4, 10 mM dextrose, 20 mM Hepes, pH 7.4). OKA is maintained as a 1 mM stock solution in DMSO prior to dilution to 4 μM in KRH.
MSN cells grown in 225 cm^2 flasks are removed from the incubator, their medium decanted and replaced with 50 ml pre-warmed KRH. The cells are harvested by scraping prior to sedimentation at 1000 rpm for 5 min. The supernatants are discarded and the cell pellets are resuspended, the cells counted and diluted to a density of 2×10^4 cells/[…]. The cells are then plated in a 96 well plate at 50 μl/well and 25 μl of 4 μM OKA and 25 μl of drug are then added to the appropriate wells; the entire 96 well plate is then incubated for 2 hrs at 37° C. Depending on the dilution of drug added, this yields individual wells containing 1 μM OKA, 0-64 μM drug and 2×10^4 cells in 0.26% DMSO in KRH. The incubation is terminated by the addition of 20 μl of 6X extraction buffer and immediate freezing at −80° C. for at least one hr. The 6X extraction buffer contains: 25 mM Tris-HCl, pH 7.6, 150 mM NaCl, 5 mM EDTA, 24 mM β-glycerol phosphate, 10 μg/ml APMSF (4-amidinophenylmethane-sulfonyl flouride), and 2.5 μg/ml each of leupeptin, aprotinin, and pepstatin. The plates are thawed in a 37° C. water bath and 20 μl of cell lysate is added to a replica well in an ELISA plate that already contains 80 μl of coating buffer (15 mM Na2CO3 and 35 mM NaHCO3, pH 9.6). The plates are allowed to coat overnight at 4° C. The plates are washed four times with deionized water and then blocked for 30 min at 37° C. with 200 μl/well pre-warmed 1% bovine serum albumin in 10 mM Tris-HCl, pH 7.4, 150 mM NaCl, 3 mM NaN3 (BSA-TBS). After the blocking solution is removed, 100 μl/well of an appropriate dilution of pre-warmed primary antibody (eg., TG3 or PHF-1) in BSA-TBS is added and incubated at 37° C. for 30 min. Incubation is terninated by washing four times in deionized water at which time 100 μl of an appropriate dilution of pre-warmed secondary antibody (conjugated to alkaline phosphatase) in BSA-TBS is added to each well in the ELISA plate. Incubation is performed for 30 min at 37° C. followed by washing 4 times with deionized water. […] of prewarmed chromogenic substrate (1 mg/mnl p-nitrophenyl phosphate in 10% diethanolamine, 3 mM NaN3, 0.5 mM MgCl2, pH 9.8) is added and the plate incubated for 30 min at 37° C. […]

## Cl.Cl.O=C(CCN1CCN(Cc2ccccc2)CC1)c1ccc([N+](=O)[O-])cc1 [Example 5]
[1]
  minimal effective concentration: 4 µM
[2]
  Diameter of the zone of inhibition, C. albicans: 17.6 mm
[3]
  Diameter of the zone of inhibition, P. vulgaris: 17.3 mm
[4]
  Diameter of the zone of inhibition, S. aureus: 22.8 mm
[5]
  Diameter of the zone of inhibition, S. pneumoniae: 29.9 mm

## Cl.O=C(CCN1CCN(C(=O)c2ccccc2C(F)(F)F)CC1)c1ccccc1F [Example 43]
[2]
  Diameter of the zone of inhibition, C. albicans: 22.5 mm
[3]
  Diameter of the zone of inhibition, P. vulgaris: 15.9 mm
[4]
  Diameter of the zone of inhibition, S. aureus: 17.7 mm
[5]
  Diameter of the zone of inhibition, S. pneumoniae: 25.3 mm

## O=C(CCN1CCN(Cc2ccccc2)CC1)c1nccs1 [Example 76, 1-(2-Thiazolyl)-3-(4′-benzyl-1′-piperazinyl)-1-propanone dihydrochloride]
[6]
  IC50: 10.5 µM
[2]
  zone of inhibition at 240 µg/disc: 20.9 mm
[3]
  zone of inhibition at 240 µg/disc: 20.5 mm
[4]
  zone of inhibition at 240 µg/disc: 19.3 mm
[5]
  zone of inhibition at 240 µg/disc: 35.5 mm

## Cl.Cl.O=C(CCN1CCN(C(c2ccccc2)c2ccc(Cl)cc2)CC1)c1ccc(Br)s1 (stereo not shown) [Example 78, 1(5″-Bromo-2″-thienyl)-3-[4′-(1′″-p-chlorophenyl-1′″-phenylmethyl)-1′-piperazinyl]-1-propanone dihydrochloride]
[2]
  Diameter of the zone of inhibition, C. albicans: 15.2 mm
[3]
  Diameter of the zone of inhibition, P. vulgaris: 14.5 mm
[4]
  Diameter of the zone of inhibition, S. aureus: 16.2 mm
[5]
  Diameter of the zone of inhibition, S. pneumoniae: 19.7 mm

## O=C(CCN1CCN(C(=O)c2sc3ccccc3c2Cl)CC1)c1ccc(Br)s1 [Example 86, 1-(5″-Bromo-2″-thienyl)-3-[4′-(3′″-chlorobenzo[b]-2′″-thienoyl)-1′-piperazinyl]-1-propanone dihydrochloride]
[2]
  zone of inhibition at 240 µg/disc: 17.3 mm
[3]
  zone of inhibition at 240 µg/disc: 13.9 mm
[4]
  zone of inhibition at 240 µg/disc: 16.2 mm
[5]
  zone of inhibition at 240 µg/disc: 19.3 mm
